Activity calls are given as the source filed them. How the calls were made is not given here.

Sequence of Ubiquitin-conjugating enzyme E2 N (Homo sapiens) (P61088 whole entry, looked up): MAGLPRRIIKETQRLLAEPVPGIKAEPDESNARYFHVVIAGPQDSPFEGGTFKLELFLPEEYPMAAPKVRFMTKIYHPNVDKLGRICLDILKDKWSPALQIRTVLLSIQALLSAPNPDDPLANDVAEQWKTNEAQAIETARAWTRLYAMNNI

This assay addresses Ubiquitin-conjugating enzyme E2 N (Homo sapiens) (UniProt P61088). Briefly: NMR detection of UBE2N ligand binding – biophysical, purified protein (AID 1552). As to conditions: NMR binding to purified UBE2N.
One may read the Kd as the concentration at which binding is half-saturated. Consider `CC(=O)Oc1c2c(c(CC=C(C)C)c3c1C(=O)C1=C[C@@H]4CC5C(C)(C)OC(C/C=C(\C)C(=O)O)(C4=O)[C@@]15O3)OC(C)(CCC=C(C)C)C=C2` (some centres not stated), for which the Kd was > 4 mM (inactive).
Consider `CN1C(=O)C2C=CC1C1C(=O)N(c3ccccc3)C(=O)C21` (configuration not stated), for which the Kd was > 4 mM (inactive).
Regarding `Cc1ccccc1N1CCN(C(=O)C2CCCCC2)CC1`, the Kd is > 4 mM (inactive).
Consider `Nc1ccc2c(c1)N1CCN=C1S2`, for which the Kd is > 4 mM (inactive).
In the case of `O=C1CC(c2c[nH]c3ccccc23)C(=O)N1` (configuration not stated) it was > 4 mM (inactive).
Consider `NC(=O)C1CCN(Cc2ccccc2)CC1`, for which the Kd is > 4 mM (inactive).
In the case of `NCCNC(=S)Nc1ccccc1` it was > 4 mM (inactive).
Turning to `CC(=O)O[C@H]1CCC2(C)C3=C(CCC2C1(C)C)[C@@]1(C)CC[C@@H](C(C)CCC=C(C)C)[C@]1(C)CC3` (some centres not stated), the Kd is > 4 mM (inactive).
For `C=C1C(=O)O[C@@H]2C3OC3(C)CC/C=C(\C)CC[C@@H]12` (some centres not stated) the value was > 4 mM (inactive); for `O=c1cc(CO)oc(CN2CCCCC2)c1O`, > 4 mM (inactive).
For `CSc1nc(C)cc(Oc2ccc(=O)n(C)n2)n1`, the Kd was > 4 mM (inactive).
Regarding `COc1cc2[nH]c(=S)n(C)c(=O)c2cc1OC`, the Kd was > 4 mM (inactive).
In the case of `CN1CCN(C(=O)c2ccco2)CC1`, the Kd was > 4 mM (inactive).
As to `N#C/C(=C\c1ccc[nH]1)S(=O)(=O)c1ccccc1`, the Kd was > 4 mM (inactive).
Turning to `O=C1CN(C(=O)c2ccccc2)c2ccccc2N1`, the Kd is > 4 mM (inactive).
With `Nc1cc(N)nc(SCc2cccnc2)n1`, the Kd was > 4 mM (inactive).
As for `NC(=O)Cc1nc(-c2ccccc2)cs1`, the Kd was > 4 mM (inactive).
With `Nc1cccc(S(=O)(=O)N2CCCC2)c1`, the Kd was > 4 mM (inactive).
For `Cc1cc(C(=O)N2CCCCCC2)cs1` the value was > 4 mM (inactive); for `CC(=O)Oc1cccc2ccc(=O)[nH]c12`, > 4 mM (inactive).
In the case of `O=C(O)/C=C(\CC(=O)O)C(=O)O` it was > 4 mM (inactive); in that of `Cn1cnc2ccc([N+](=O)[O-])cc2c1=O`, > 4 mM (inactive).
As to `COc1ccccc1/C=C\C(=O)O`, the Kd is > 4 mM (inactive).
Turning to `COC(=O)CCSCC(=O)Nc1nnc(C)s1`, the Kd is > 4 mM (inactive).
On to `O=C(CCc1n[nH]c(=O)[nH]c1=O)NCc1ccccc1`, for which the Kd is > 4 mM (inactive).
In the case of `Cc1nn(CC(=O)N2CCCCC2)c(=O)c2ccccc12`, the Kd is > 4 mM (inactive).
Regarding `O=C(O)CCCc1nc2ccccc2s1`, the Kd was > 4 mM (inactive).
Take `NC(=O)c1ccc(N2C(=O)C=CC2=O)cc1Cl`: the Kd is > 4 mM (inactive).
Turning to `COC(=O)c1c(C)c2c(c(C)c1O)OC(=O)c1c(C)c(Cl)c(O)c(Cl)c1O2`, the Kd is > 4 mM (inactive).
In the case of `O=C1CSC2(CN3CCC2CC3)N1` (configuration not stated) it was > 4 mM (inactive); in that of `CN1C(=O)CC(=O)N(C)c2ccccc21`, > 4 mM (inactive).
For `CC(C)=CCC1=C(O)c2ccccc2C(=O)C1=O` the value was > 4 mM (inactive).
Regarding `O=c1[nH]nc(Cc2ccncc2)c2ccccc12`, the Kd is > 4 mM (inactive).
Take `Cc1nnc(SCC(=O)N2CCc3ccccc32)s1`: the Kd is > 4 mM (inactive).
On to `COc1ccc2ccc(=O)oc2c1CC=C(C)C`, for which the Kd is > 4 mM (inactive).
In the case of `Cc1ccccc1-n1c(N)cc(=O)[nH]c1=S` it was > 4 mM (inactive).
For `COc1cc2c(cc1O)CC1c3c(cc(O)c(OC)c3-2)CCN1C` (configuration not stated), the Kd is > 4 mM (inactive).
As to `CC1CN=C(Nc2ccccc2)S1` (configuration not stated), the Kd is > 4 mM (inactive).
As for `Cc1ccc(SCC(=O)N2CCOCC2)cc1`, the Kd was > 4 mM (inactive).
For `O=C(NCC1CCCCC1)c1ccco1` the value was > 4 mM (inactive); for `O=C(O)CN1CCN(C2CCCC2)CC1`, > 4 mM (inactive).
For `N=Cc1c(O)n(-c2cccc(Cl)c2)c(=O)[nH]c1=O` the value was > 4 mM (inactive).
As to `COC(=O)N1CCN(c2ccc(C(C)=O)cc2)CC1`, the Kd is > 4 mM (inactive).
In the case of `Cc1cc(-c2ccc(Cl)cc2)n2nc(N)nc2n1` it was > 4 mM (inactive); in that of `CC(C)CCn1cnc2c1c(=O)n(C)c(=O)n2C`, > 4 mM (inactive).
Consider `O=C(CSc1ccnc(=O)[nH]1)NCc1ccccc1`, for which the Kd was > 4 mM (inactive).
In the case of `CCN1CCN(c2ncnc3c2nnn3C)CC1`, the Kd was > 4 mM (inactive).
Consider `O=[n+]1cc(C2=CC=CCC2)n([O-])c2c1CCCCC2`, for which the Kd is > 4 mM (inactive).
With `OC1(c2ccc(Cl)cc2)CCNCC1`, the Kd is > 4 mM (inactive).
For `CC(C)c1ccc2c(c1)CCC1C(C)(C(N)=O)CCCC21C` (configuration not stated), the Kd was > 4 mM (inactive).
For `NS(=O)(=O)c1ccc(NC(=O)C(F)(F)F)cc1`, the Kd is > 4 mM (inactive).
`O=[n+]1cc(-c2ccccc2)n([O-])c2c1CCC2`: the Kd was > 4 mM (inactive).
For `N#Cc1cccc(Cn2nnc(-c3ccccc3)n2)c1`, the Kd was > 4 mM (inactive).
In the case of `CC(=O)Nc1ccc(C(=O)N2CCOCC2)cc1Cl`, the Kd is > 4 mM (inactive).
For `C=CCc1ccc(OC(=O)c2ccccc2)c(OC)c1`, the Kd is > 4 mM (inactive).
For `NC(=O)CSc1nc2ccccc2c(=O)[nH]1` the value was > 4 mM (inactive).
As for `O=C1CSC(=S)N1N1C(=O)C2C3C=CC(C3)C2C1=O` (configuration not stated), the Kd is > 4 mM (inactive).
With `Nc1nc(-c2nc3ccccc3[nH]2)cs1`, the Kd is > 4 mM (inactive).
In the case of `Nc1cc(C(=O)N2CCCC2)cc(C(=O)N2CCCC2)c1`, the Kd is > 4 mM (inactive).
With `C[C@@H]1O[C@@H](O[C@H]2CC[C@]3(C=O)C4CC[C@]5(C)[C@@H](C6=CC(=O)OC6)CC[C@]5(O)C4CC[C@]3(O)C2)[C@H](O)[C@H](O)[C@H]1O` (some centres not stated), the Kd was > 4 mM (inactive).
With `Cc1c(/C=N\n2cnnc2)c2ccccc2n1C`, the Kd was > 4 mM (inactive).
For `Fc1ccc(NC2=NCCS2)cc1Cl`, the Kd was > 4 mM (inactive).
As for `O=C1NC(=O)C2C3C=CC(O3)C12` (configuration not stated), the Kd is > 4 mM (inactive).
For `COC(=O)c1c(OC)cc2c(c1C)Oc1c(Cl)c(OC(C)=O)c(Cl)c(C)c1C(=O)O2`, the Kd is > 4 mM (inactive).
Regarding `C[C@@H]1O[C@@H](O[C@H]2C[C@@H](O)[C@]3(CO)C4C(CC[C@]3(O)C2)[C@@]2(O)CC[C@H](C3=CC(=O)OC3)[C@@]2(C)C[C@H]4O)[C@H](O)[C@H](O)[C@H]1O` (some centres not stated), the Kd is > 4 mM (inactive).
Consider `O=C(Nc1ccncc1)c1c(F)cccc1F`, for which the Kd was > 4 mM (inactive).
`O=C1CC(c2ccccc2)n2ncnc2N1` (configuration not stated): the Kd was > 4 mM (inactive).
`Oc1cccc(N2CCOCC2)c1`: the Kd was > 4 mM (inactive).
Take `Cc1cc(-c2ccccc2)nc2cc(C(N)=O)nn12`: the Kd is > 4 mM (inactive).
Turning to `CC(=O)Nc1ccc(NC(=O)c2ccncc2)cc1`, the Kd was > 4 mM (inactive).
Turning to `O=C(O)c1cccc(N2C(=O)C3CC=CCC3C2=O)c1` (configuration not stated), the Kd is > 4 mM (inactive).
Take `CN(C)S(=O)(=O)c1ccccc1C#N`: the Kd was > 4 mM (inactive).

The values above are taken from PubChem BioAssay AID1552 (Sanford-Burnham Center for Chemical Genomics, 2009).
